Laboratory results from patent US20130004053A1, “System and method for automatic color segmentation and minimum significant response for measurement of fractional localized intensity of cellular compartments” (Vala Sciences, Inc., priority 2002, published 2013).

Key:
[1] = system: NFκB p65 cytoplasm-to-nucleus translocation in HUVEC cells; settings: previous reports [Ding et al.]; cited from earlier work
[2] = system: NFκB p65 cytoplasm-to-nucleus translocation in HUVEC cells; assay: TNFα-induced NFκB cytoplasm-nucleus translocation in HUVEC (FLIN); type: cell-based, human
Procedure: The cells used in these studies were primary human umbilical vein endothelial cells (HUVEC) obtained from Clonetics Corporation. The cells were maintained in culture under standard conditions and passaged using Clonetics' proprietary EGM medium and reagent system. Since they are not transformed, HUVECs, generally become senescent after nine or ten passages.
Prior to assay, cells were transferred to 96-well plates (Packard black ViewPlate) and incubated overnight to yield cell monolayers that were approximately 25% confluent. Plates used to determine a statistically optimal cell density for the assay were made by seeding wells at 5000, 2500, and 1000 cells per well and incubating overnight. […] Translocation of NFκB from the cytoplasm to the nucleus was assessed by visual examination of sample wells with a confocal microscope system. […]
Fractional Localized Intensity Measurements on TNFα-induced NFκB Cytoplasm-Nucleus Translocation: Immunofluorescent staining of the NFκB p65 regulatory subunit allows for easy characterization of the intercellular NFκB distribution by visual inspection of images acquired during scanning. The majority of fluorescence lies outside the nuclear area in unstimulated cells, while a substantial amount co-locates with the nuclear mask subsequent to maximal stimulation with TNFα (FIG. 11). […]

Question: For tumor necrosis factor α [TNFα], which “fraction of p65 to translocate on stimulus, of gross amount in unstimulated cell cytoplasm” value [1] is on record?
Answer: 20%

Question: And the “translocation of labeled NFκB, average” value ([2]; 200 U/ml TNFα, 15 m, average over cellular densities)?
Answer: 18.80%

Question: What about the “gross p65 translocated upon maximal stimulation” value ([2]; maximal stimulation) of the same substance?
Answer: ≈ 20%
